From article PMC9687990, “Identification, Characterization, and Expression of a β-Galactosidase from Arion Species (Mollusca)” (Biomolecules, 2022)

Columns and labels:
[1] = biological target: T1, recombinant β-galactosidase from A. vulgaris (β-gal) (Arion vulgaris, UniProt A0A0B7AQJ9); assay: inhibition of pNP-β-Gal hydrolysis, colorimetric […] nm; type: biochemical; conditions: pNP-β-Gal substrate, pH 4.5, 37 °C, 2 h; 12 mM galactose; product inhibition
T1 construct: gene ORF136304
T1 sequence (A0A0B7AQJ9 1-661): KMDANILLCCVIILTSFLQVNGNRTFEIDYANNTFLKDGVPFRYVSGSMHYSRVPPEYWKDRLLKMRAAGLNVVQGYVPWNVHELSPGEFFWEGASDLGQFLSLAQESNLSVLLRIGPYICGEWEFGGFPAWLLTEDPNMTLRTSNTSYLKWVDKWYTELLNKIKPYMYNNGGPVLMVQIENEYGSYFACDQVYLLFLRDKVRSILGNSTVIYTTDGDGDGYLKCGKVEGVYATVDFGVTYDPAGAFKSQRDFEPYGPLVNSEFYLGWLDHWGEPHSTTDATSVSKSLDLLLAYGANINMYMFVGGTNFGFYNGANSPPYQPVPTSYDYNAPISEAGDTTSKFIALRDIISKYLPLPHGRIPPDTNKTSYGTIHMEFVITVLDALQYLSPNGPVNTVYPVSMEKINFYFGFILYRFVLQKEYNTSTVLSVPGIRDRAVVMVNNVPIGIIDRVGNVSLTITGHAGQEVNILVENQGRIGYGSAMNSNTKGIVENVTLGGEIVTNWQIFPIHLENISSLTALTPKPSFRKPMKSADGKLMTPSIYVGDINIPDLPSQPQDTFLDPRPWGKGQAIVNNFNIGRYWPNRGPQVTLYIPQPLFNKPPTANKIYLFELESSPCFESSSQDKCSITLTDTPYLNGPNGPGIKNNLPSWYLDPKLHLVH

[2] = test system: T2, native β-galactosidase from A. lusitanicus; assay: colorimetric p-nitrophenol release, […] nm; type: biochemical, Arion vulgaris; conditions: pH 4.5 (Na citrate), 37 °C, 2 h; 0.2-12.5 mM substrate
T2 construct: gene β-Gal

purified protein = substrate: O=[N+]([O-])c1ccc(O[C@@H]2O[C@H](CO)[C@H](O)[C@H](O)[C@H]2O)cc1; assay: purified protein; conditions: pH 4.5 (Na citrate), 37 °C, 2 h, 0.2-12.5 mM substrate

OC[C@H]1OC(O)[C@H](O)[C@@H](O)[C@H]1O (stereo partly drawn) [galactose]
% reduction of activity at 12 mM [1]: ~ 40%

O=[N+]([O-])c1ccc(O[C@@H]2O[C@H](CO)[C@H](O)[C@H](O)[C@H]2O)cc1 [pNP-β-Gal]
Km [2]: 8.3 mM

B1: recombinant β-galactosidase from A. vulgaris (β-gal) (Arion vulgaris) (protein)
chain: KMDANILLCCVIILTSFLQVNGNRTFEIDYANNTFLKDGVPFRYVSGSMHYSRVPPEYWKDRLLKMRAAGLNVVQGYVPWNVHELSPGEFFWEGASDLGQFLSLAQESNLSVLLRIGPYICGEWEFGGFPAWLLTEDPNMTLRTSNTSYLKWVDKWYTELLNKIKPYMYNNGGPVLMVQIENEYGSYFACDQVYLLFLRDKVRSILGNSTVIYTTDGDGDGYLKCGKVEGVYATVDFGVTYDPAGAFKSQRDFEPYGPLVNSEFYLGWLDHWGEPHSTTDATSVSKSLDLLLAYGANINMYMFVGGTNFGFYNGANSPPYQPVPTSYDYNAPISEAGDTTSKFIALRDIISKYLPLPHGRIPPDTNKTSYGTIHMEFVITVLDALQYLSPNGPVNTVYPVSMEKINFYFGFILYRFVLQKEYNTSTVLSVPGIRDRAVVMVNNVPIGIIDRVGNVSLTITGHAGQEVNILVENQGRIGYGSAMNSNTKGIVENVTLGGEIVTNWQIFPIHLENISSLTALTPKPSFRKPMKSADGKLMTPSIYVGDINIPDLPSQPQDTFLDPRPWGKGQAIVNNFNIGRYWPNRGPQVTLYIPQPLFNKPPTANKIYLFELESSPCFESSSQDKCSITLTDTPYLNGPNGPGIKNNLPSWYLDPKLHLVH
Km (purified protein): 3.2 mM
